Assay results: patent publication US20240360087A1, “THERMODYNAMICALLY STABLE FORM OF SCO-101” (SCANDION ONCOLOGY A/S, priority 2021, published 2024)
“Also recorded” adds a separate entry of the source.

Assays:
Assay type in all cases: physicochemical
[1] = Dynamic vapour sorption (DVS), hygroscopicity; conditions: for mass gain at 90% relative humidity (DVS): 25° C.; for hygroscopicity (DVS), in words: RH up to 90%
Method: Approximately 10-20 mg of sample was placed into a mesh vapour sorption balance pan and loaded into a DVS Intrinsic or Advantage dynamic vapour sorption balance by Surface Measurement Systems. The sample was subjected to a ramping profile from 40-90% relative humidity (RH) at 10% increments, maintaining the sample at each step until a stable weight had been achieved (dm/dt 0.004%, minimum step length 30 minutes, maximum step length 120 minutes) at 25° C. After completion of the sorption cycle, the sample was dried using the same procedure to 0% RH and then a second sorption cycle back to 40% RH. Two cycles were performed. The weight change during the sorption/desorption cycles were plotted, allowing for the hygroscopic nature of the sample to be determined. XRPD analysis was then carried out on any solid retained.

[2] = Competitive slurry experiments (thermodynamic stability of solid forms); conditions: for thermodynamic stability of the solid form, in words: conclusion from competitive slurry experiments and thermal data; for Form/Pattern after slurrying for 3 days: 1:1 mixture with Form I, 40° C., XRPD
Method: The slurries were stirred at 40° C. for 3 days. After 3 days, the solids were filtered centrifugally and analysed by XRPD.

[3] = Storage at 40° C./75% RH in an open vial, XRPD; conditions: 3 days
Method: 200 mg SCO-101, Form III (Pattern 24) was placed at 40° C./75% RH in an open vial covered with tissue for 3 days.

[4] = Variable temperature XRPD (VT-XRPD) of solid form conversion; conditions: mixture of Form III and Form IV at 150° C.
[5] = saturated acetone:heptane (50:50% v/v)
[6] = saturated acetone:water (50:50% v/v)

| SMILES | mass gain at 90% relative humidity (DVS) ([1]; 90% RH) | hygroscopicity (DVS), in words [1] | hygroscopicity (DVS), in words ([1]; listed as crystal form I) | thermodynamic stability of the solid form, in words [2] | water absorbed at 90% RH (DVS) ([1]; 90% RH) | weight gain when increasing RH from 70% to 80% (DVS) ([1]; RH 70% to 80%, corresponds to monohydrate) [%] | hygroscopicity (DVS), in words ([1]; listed as crystal form II) | Form/Pattern after slurrying for 3 days [2, 5] | Form/Pattern after slurrying for 3 days [2, 6] | solid form after storage (XRPD) [3] | temperature of complete transformation into Form IV (VT-XRPD) [4] [°C] |
| --- | --- | --- | --- | --- | --- | --- | --- | --- | --- | --- | --- |
| O=C(Nc1cc(C(F)(F)F)cc(C(F)(F)F)c1)Nc1ccc(Br)cc1-c1nnn[nH]1 [Form I, N-[4-Bromo-2-(1H-1,2,3,4-tetrazol-5-yl)phenyl]-N′-[3,5-bis(trifluoromethyl)phenyl]urea] | no increase in mass | non-hygroscopic | non-hygroscopic | thermodynamically most stable polymorph; also recorded: thermodynamically stable polymorph |  |  |  |  |  |  |  |
| O=C(Nc1cc(C(F)(F)F)cc(C(F)(F)F)c1)Nc1ccc(Br)cc1-c1nnn[nH]1 [Form II, N-[4-Bromo-2-(1H-1,2,3,4-tetrazol-5-yl)phenyl]-N′-[3,5-bis(trifluoromethyl)phenyl]urea] | approx 6% | takes up water to form a hydrate; also recorded: hygroscopic |  | metastable form | approx. 6 % (w/w) | 3 | hygroscopic | Form I | Form I |  |  |
| O=C(Nc1cc(C(F)(F)F)cc(C(F)(F)F)c1)Nc1ccc(Br)cc1-c1nnn[nH]1 [Form III, N-[4-Bromo-2-(1H-1,2,3,4-tetrazol-5-yl)phenyl]-N′-[3,5-bis(trifluoromethyl)phenyl]urea] |  |  |  |  |  |  |  |  |  | Form IV, Pattern 29 | 155 |
| O=C(Nc1cc(C(F)(F)F)cc(C(F)(F)F)c1)Nc1ccc(Br)cc1-c1nnn[nH]1 [Pattern 5, N-[4-Bromo-2-(1H-1,2,3,4-tetrazol-5-yl)phenyl]-N′-[3,5-bis(trifluoromethyl)phenyl]urea] |  |  |  |  |  |  |  | Form I | Form I |  |  |
